Laboratory results reported in the kinase profiling compilation of Christmann-Franck et al. (2016).

Assays:
Test in all cases: KINOMEscan competition binding
Details in all cases: compound 10.0 µM
BLK (human) = BLK (human) (UniProt P51451)
BMPR1B (human) = BMPR1B (human) (UniProt O00238)
CSNK1G1 (human) = CSNK1G1 (human) (UniProt Q9HCP0)
DCLK1 (human) = DCLK1 (human) (UniProt O15075)
DYRK1B (human) = DYRK1B (human) (UniProt Q9Y463)
[1] = system: EIF2AK4 KD2 (human), Q9P2K8 [S808G]
EPHA1 (human) = EPHA1 (human) (UniProt P21709)
EPHA8 (human) = EPHA8 (human) (UniProt P29322)
FER (human) = FER (human) (UniProt P16591)
Sequence of FER (human) (P16591 whole entry, looked up): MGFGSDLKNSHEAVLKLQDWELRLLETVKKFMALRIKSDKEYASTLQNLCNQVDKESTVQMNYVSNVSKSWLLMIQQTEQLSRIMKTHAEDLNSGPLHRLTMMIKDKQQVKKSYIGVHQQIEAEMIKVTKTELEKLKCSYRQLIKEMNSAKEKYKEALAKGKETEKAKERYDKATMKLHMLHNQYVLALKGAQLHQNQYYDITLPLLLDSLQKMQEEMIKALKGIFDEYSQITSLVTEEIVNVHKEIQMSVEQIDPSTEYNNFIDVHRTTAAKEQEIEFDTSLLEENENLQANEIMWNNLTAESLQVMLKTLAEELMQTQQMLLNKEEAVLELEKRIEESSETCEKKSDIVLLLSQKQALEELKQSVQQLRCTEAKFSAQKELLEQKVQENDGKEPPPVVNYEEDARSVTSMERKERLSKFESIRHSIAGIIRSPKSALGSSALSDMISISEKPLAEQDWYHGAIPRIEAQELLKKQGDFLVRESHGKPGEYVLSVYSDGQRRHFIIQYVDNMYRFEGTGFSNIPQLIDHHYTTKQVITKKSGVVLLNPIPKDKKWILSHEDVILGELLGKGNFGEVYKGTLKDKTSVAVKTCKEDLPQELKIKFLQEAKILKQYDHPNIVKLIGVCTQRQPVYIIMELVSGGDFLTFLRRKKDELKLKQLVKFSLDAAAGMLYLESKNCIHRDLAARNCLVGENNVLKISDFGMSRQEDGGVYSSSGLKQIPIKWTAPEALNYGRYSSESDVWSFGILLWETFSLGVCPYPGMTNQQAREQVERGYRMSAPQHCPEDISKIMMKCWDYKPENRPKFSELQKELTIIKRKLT

FES (human) = FES (human) (UniProt P07332)
FGFR2 (human) = FGFR2 (human) (UniProt P21802)
FGFR3 (human) = FGFR3 (human) (UniProt P22607)
Sequence of FGFR3 (human) (P22607 whole entry, looked up): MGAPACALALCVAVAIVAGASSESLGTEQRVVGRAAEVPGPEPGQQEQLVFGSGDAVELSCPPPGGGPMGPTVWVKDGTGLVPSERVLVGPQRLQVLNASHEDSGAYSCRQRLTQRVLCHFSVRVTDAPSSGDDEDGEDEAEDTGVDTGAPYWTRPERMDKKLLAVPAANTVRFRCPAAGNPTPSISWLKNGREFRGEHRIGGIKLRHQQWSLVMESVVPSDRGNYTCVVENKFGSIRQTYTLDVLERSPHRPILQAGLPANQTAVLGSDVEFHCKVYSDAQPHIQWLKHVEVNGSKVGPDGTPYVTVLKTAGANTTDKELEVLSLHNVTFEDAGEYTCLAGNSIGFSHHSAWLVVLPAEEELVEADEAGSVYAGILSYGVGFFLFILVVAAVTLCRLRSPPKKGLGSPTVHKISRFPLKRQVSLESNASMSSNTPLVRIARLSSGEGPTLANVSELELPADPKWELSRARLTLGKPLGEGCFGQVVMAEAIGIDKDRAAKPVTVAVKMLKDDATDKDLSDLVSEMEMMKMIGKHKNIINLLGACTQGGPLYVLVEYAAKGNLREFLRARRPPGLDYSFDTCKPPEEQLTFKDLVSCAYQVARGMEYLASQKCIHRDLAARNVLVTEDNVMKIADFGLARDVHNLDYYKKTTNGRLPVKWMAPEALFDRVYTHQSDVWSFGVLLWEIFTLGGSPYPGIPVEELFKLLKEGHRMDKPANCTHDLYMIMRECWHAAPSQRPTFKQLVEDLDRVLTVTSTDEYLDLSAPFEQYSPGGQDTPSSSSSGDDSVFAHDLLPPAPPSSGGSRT

FLT3 (human) = FLT3 (human) (UniProt P36888)
GAK (human) = GAK (human) (UniProt O14976)
GSK3B (human) = GSK3B (human) (UniProt P49841)
LCK (human) = LCK (human) (UniProt P06239)
MAP2K2 (human) = MAP2K2 (human) (UniProt P36507)
MAP2K4 (human) = MAP2K4 (human) (UniProt P45985)
MAP2K6 (human) = MAP2K6 (human) (UniProt P52564)
MAP3K10 (human) = MAP3K10 (human) (UniProt Q02779)
MAP4K1 (human) = MAP4K1 (human) (UniProt Q92918)
MAPK10 (human) = MAPK10 (human) (UniProt P53779)
MINK1 (human) = MINK1 (human) (UniProt Q8N4C8)
Sequence of MINK1 (human) (Q8N4C8 whole entry, looked up): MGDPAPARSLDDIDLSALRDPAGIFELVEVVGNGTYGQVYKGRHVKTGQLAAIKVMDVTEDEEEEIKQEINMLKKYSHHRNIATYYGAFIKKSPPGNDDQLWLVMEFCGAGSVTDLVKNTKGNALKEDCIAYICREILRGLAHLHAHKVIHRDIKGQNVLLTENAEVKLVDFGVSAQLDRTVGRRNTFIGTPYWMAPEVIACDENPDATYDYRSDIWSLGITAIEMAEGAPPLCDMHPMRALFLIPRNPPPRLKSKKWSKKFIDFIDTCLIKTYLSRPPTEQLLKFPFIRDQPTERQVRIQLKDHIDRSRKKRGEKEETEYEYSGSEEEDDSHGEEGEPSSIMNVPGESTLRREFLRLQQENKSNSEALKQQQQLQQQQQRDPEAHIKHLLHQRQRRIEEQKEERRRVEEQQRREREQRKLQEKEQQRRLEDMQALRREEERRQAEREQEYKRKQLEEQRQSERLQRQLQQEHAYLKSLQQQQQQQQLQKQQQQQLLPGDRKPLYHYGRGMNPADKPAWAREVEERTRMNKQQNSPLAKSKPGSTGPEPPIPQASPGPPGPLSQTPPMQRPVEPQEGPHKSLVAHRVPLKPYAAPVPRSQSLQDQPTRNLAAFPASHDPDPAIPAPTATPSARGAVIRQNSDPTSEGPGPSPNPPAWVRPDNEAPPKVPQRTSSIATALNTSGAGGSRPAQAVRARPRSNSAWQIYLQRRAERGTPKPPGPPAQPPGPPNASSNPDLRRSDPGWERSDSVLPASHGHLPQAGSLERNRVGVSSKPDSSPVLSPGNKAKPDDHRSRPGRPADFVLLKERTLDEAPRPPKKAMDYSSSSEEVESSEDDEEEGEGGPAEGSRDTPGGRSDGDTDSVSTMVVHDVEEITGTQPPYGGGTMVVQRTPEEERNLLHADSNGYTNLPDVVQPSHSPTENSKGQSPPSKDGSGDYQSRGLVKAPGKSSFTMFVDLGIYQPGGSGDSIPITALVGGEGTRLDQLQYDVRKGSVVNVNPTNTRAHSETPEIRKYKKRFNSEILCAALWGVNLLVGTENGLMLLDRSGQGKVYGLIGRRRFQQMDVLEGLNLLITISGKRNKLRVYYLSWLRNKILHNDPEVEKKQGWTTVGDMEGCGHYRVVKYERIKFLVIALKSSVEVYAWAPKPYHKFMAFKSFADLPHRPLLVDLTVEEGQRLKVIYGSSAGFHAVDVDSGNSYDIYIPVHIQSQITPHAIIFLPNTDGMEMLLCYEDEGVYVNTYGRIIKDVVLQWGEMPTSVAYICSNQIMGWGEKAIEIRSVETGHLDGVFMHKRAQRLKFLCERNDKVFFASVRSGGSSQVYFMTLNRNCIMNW

MKNK2 (human) = MKNK2 (human) (UniProt Q9HBH9)
MLTK (human) = MLTK (human) (UniProt Q9NYL2)
NTRK1 (human) = NTRK1 (human) (UniProt P04629)
NTRK3 (human) = NTRK3 (human) (UniProt Q16288)
PAK4 (human) = PAK4 (human) (UniProt O96013)
PAK7 (human) = PAK7 (human) (UniProt Q9P286)
PDGFRA (human) = PDGFRA (human) (UniProt P16234)
Sequence of PDGFRA (human) (P16234 whole entry, looked up): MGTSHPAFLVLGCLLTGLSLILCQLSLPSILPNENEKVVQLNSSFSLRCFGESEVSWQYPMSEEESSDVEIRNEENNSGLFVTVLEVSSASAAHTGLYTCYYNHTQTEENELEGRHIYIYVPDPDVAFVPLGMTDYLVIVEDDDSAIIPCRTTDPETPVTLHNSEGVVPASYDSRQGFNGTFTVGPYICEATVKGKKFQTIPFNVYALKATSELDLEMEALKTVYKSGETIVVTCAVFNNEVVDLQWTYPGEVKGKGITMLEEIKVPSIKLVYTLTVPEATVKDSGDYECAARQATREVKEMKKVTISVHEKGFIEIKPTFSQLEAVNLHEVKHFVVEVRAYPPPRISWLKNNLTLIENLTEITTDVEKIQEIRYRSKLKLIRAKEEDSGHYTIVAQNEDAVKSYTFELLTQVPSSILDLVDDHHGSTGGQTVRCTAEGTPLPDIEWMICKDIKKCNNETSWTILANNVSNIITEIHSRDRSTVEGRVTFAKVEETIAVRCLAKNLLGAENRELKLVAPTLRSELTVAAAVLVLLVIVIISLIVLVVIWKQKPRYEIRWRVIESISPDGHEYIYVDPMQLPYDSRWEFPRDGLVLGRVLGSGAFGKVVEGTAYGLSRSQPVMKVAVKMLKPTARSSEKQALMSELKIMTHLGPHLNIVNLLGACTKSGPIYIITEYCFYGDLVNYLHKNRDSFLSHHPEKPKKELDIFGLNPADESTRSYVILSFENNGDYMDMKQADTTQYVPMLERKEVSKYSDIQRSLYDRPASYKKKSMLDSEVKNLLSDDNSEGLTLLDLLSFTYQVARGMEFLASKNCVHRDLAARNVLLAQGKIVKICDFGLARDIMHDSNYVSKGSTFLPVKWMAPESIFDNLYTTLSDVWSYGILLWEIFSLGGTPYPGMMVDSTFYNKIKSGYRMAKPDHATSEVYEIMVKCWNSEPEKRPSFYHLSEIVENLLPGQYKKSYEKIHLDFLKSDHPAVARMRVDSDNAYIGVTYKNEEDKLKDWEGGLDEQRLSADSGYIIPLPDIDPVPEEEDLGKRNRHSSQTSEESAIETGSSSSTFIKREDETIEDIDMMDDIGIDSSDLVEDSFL

PIM2 (human) = PIM2 (human) (UniProt Q9P1W9)
RPS6KA1 KD1 (human) = RPS6KA1 KD1 (human) (UniProt Q15418)
RPS6KA3 KD1 (human) = RPS6KA3 KD1 (human) (UniProt P51812)
SLK (human) = SLK (human) (UniProt Q9H2G2)
SRMS (human) = SRMS (human) (UniProt Q9H3Y6)
STK16 (human) = STK16 (human) (UniProt O75716)
Sequence of STK16 (human) (O75716 whole entry, looked up): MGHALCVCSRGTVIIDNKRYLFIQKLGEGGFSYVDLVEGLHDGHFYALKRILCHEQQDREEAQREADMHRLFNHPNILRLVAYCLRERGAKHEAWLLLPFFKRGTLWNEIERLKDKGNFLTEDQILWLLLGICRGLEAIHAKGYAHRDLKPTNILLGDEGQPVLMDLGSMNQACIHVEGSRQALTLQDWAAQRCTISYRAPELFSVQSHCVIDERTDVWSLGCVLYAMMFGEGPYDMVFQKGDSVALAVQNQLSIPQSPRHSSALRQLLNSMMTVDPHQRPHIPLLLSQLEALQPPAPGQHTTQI

STK32B (human) = STK32B (human) (UniProt Q9NY57)
STK38L (human) = STK38L (human) (UniProt Q9Y2H1)
TAOK3 (human) = TAOK3 (human) (UniProt Q9H2K8)
TTK (human) = TTK (human) (UniProt P33981)

Sequence of DCLK1 (human) (O15075 whole entry, looked up): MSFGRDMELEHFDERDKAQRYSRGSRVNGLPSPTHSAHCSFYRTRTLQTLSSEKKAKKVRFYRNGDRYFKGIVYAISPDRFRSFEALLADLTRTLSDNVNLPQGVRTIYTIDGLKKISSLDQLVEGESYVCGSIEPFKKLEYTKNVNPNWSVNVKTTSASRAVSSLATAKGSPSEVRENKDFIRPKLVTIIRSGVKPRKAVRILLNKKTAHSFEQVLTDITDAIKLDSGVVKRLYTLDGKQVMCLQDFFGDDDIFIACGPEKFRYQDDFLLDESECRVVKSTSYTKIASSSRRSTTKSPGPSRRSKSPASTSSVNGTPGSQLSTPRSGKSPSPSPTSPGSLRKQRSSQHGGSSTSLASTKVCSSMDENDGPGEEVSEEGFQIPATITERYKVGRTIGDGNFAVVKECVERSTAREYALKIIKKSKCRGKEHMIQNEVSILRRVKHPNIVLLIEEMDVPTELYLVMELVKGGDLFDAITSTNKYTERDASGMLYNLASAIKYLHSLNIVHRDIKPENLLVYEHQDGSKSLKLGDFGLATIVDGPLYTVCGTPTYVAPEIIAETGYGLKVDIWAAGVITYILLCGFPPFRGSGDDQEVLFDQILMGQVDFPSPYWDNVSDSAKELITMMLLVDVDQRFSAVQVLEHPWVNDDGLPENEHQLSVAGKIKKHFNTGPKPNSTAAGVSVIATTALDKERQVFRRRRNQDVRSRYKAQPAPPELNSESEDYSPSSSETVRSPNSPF

| Structure (SMILES) | kinase still bound, per cent of control (BLK (human)) [%] | kinase still bound, per cent of control (BMPR1B (human)) [%] | kinase still bound, per cent of control (CSNK1G1 (human)) [%] | kinase still bound, per cent of control (DCLK1 (human)) [%] | kinase still bound, per cent of control (DYRK1B (human)) [%] | kinase still bound, per cent of control [1] [%] | kinase still bound, per cent of control (EPHA1 (human)) [%] | kinase still bound, per cent of control (EPHA8 (human)) [%] | kinase still bound, per cent of control (FER (human)) [%] | kinase still bound, per cent of control (FES (human)) [%] | kinase still bound, per cent of control (FGFR2 (human)) [%] | kinase still bound, per cent of control (FGFR3 (human)) [%] | kinase still bound, per cent of control (FLT3 (human)) [%] | kinase still bound, per cent of control (GAK (human)) [%] | kinase still bound, per cent of control (GSK3B (human)) [%] | kinase still bound, per cent of control (LCK (human)) [%] | kinase still bound, per cent of control (MAP2K2 (human)) [%] | kinase still bound, per cent of control (MAP2K4 (human)) [%] | kinase still bound, per cent of control (MAP2K6 (human)) [%] | kinase still bound, per cent of control (MAP3K10 (human)) [%] | other results |
| --- | --- | --- | --- | --- | --- | --- | --- | --- | --- | --- | --- | --- | --- | --- | --- | --- | --- | --- | --- | --- | --- |
| O=C1Nc2ccc(I)cc2/C1=C/c1cc(Br)c(O)c(Br)c1 | 41 | 27 | 69 | 86 | 41 | 78 | 98 | 100 | 100 | 95 | 59 | 84 | 3.6 | 1.6 | 91 | 38 | 74 | 3.4 | 71 | 93 | kinase still bound, per cent of control (MAP4K1 (human)): 71%; kinase still bound, per cent of control (MAPK10 (human)): 60%; kinase still bound, per cent of control (MINK1 (human)): 2.8%; kinase still bound, per cent of control (MKNK2 (human)): 89%; kinase still bound, per cent of control (MLTK (human)): 84%; kinase still bound, per cent of control (NTRK1 (human)): 82%; kinase still bound, per cent of control (NTRK3 (human)): 35%; kinase still bound, per cent of control (PAK4 (human)): 82%; kinase still bound, per cent of control (PAK7 (human)): 87%; kinase still bound, per cent of control (PDGFRA (human)): 22%; kinase still bound, per cent of control (PIM2 (human)): 2.1%; kinase still bound, per cent of control (RPS6KA1 KD1 (human)): 42%; kinase still bound, per cent of control (RPS6KA3 KD1 (human)): 36%; kinase still bound, per cent of control (SLK (human)): 100%; kinase still bound, per cent of control (SRMS (human)): 65%; kinase still bound, per cent of control (STK16 (human)): 90%; kinase still bound, per cent of control (STK32B (human)): 100%; kinase still bound, per cent of control (STK38L (human)): 31%; kinase still bound, per cent of control (TAOK3 (human)): 87%; kinase still bound, per cent of control (TTK (human)): 17% |
| CN(C)C/C=C/C(=O)Nc1cccc(Nc2ncc3c(n2)N(C)c2ccccc2C(=O)N3C)c1 | 0.7 | 84 | 47 | 4 | 100 | 62 | 55 | 90 | 100 | 67 | 13 | 12 | 73 | 13 | 82 | 1.2 | 78 | 100 | 95 | 89 | kinase still bound, per cent of control (MAP4K1 (human)): 38%; kinase still bound, per cent of control (MAPK10 (human)): 80%; kinase still bound, per cent of control (MINK1 (human)): 29%; kinase still bound, per cent of control (MKNK2 (human)): 0.3%; kinase still bound, per cent of control (MLTK (human)): 79%; kinase still bound, per cent of control (NTRK1 (human)): 18%; kinase still bound, per cent of control (NTRK3 (human)): 16%; kinase still bound, per cent of control (PAK4 (human)): 61%; kinase still bound, per cent of control (PAK7 (human)): 36%; kinase still bound, per cent of control (PDGFRA (human)): 100%; kinase still bound, per cent of control (PIM2 (human)): 100%; kinase still bound, per cent of control (RPS6KA1 KD1 (human)): 67%; kinase still bound, per cent of control (RPS6KA3 KD1 (human)): 29%; kinase still bound, per cent of control (SLK (human)): 7.3%; kinase still bound, per cent of control (SRMS (human)): 57%; kinase still bound, per cent of control (STK16 (human)): 8.4%; kinase still bound, per cent of control (STK32B (human)): 100%; kinase still bound, per cent of control (STK38L (human)): 54%; kinase still bound, per cent of control (TAOK3 (human)): 0%; kinase still bound, per cent of control (TTK (human)): 28% |
